This is an account of results in patent US20120301895A1, “METHODS OF MODULATING BINDING OF SON OF SEVENLESS TO PHOSPHATIDIC ACID AND IDENTIFYING COMPOUNDS THAT MODULATE SUCH BINDING” (THE RESEARCH FOUNDATION OF STATE UNIVERSITY OF NEW YORK, priority 2007, published 2012).

The target in the assay is T1, PLD1 (Homo sapiens, UniProt Q13393).
T1 construct: made in house
T1 sequence (Q13393 1-1074): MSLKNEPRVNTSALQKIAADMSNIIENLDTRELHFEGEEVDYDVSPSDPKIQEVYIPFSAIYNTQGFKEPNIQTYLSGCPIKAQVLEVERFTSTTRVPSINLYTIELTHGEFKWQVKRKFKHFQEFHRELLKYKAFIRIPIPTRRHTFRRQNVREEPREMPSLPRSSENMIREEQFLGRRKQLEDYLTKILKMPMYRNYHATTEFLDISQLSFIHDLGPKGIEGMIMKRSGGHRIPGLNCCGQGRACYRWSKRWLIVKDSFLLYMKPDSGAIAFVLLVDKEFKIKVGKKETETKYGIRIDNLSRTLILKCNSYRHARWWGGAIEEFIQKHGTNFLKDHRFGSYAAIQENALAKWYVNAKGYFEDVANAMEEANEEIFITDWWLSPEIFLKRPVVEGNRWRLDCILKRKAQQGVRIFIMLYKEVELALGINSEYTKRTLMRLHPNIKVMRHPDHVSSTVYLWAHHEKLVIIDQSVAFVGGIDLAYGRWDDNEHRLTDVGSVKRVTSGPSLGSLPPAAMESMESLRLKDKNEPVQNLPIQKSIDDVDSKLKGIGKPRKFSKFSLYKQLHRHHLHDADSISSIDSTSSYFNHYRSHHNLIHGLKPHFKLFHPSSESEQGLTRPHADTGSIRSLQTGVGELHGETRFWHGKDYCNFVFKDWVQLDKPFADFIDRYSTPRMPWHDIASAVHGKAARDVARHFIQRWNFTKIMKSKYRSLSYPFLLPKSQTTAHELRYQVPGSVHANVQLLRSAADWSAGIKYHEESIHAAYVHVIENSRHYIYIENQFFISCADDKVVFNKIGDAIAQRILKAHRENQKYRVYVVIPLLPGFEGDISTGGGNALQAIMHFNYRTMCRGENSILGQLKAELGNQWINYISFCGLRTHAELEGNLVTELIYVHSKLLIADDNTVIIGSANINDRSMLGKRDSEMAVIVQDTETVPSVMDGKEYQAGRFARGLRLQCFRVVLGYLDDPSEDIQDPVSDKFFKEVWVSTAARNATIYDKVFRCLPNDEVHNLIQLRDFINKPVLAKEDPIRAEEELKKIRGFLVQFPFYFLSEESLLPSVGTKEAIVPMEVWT
The assay can be described thus: In vitro PLD activity, exogenous substrate assay, PLD1. The assay is classed as biochemical. The following applies: purified recombinant PLD1 with ARF-1, 30 min at 37° C. As to the method: In FIG. 13A, MDA-MB-231 cells were plated as in FIGS. 12A-C and then shifted to either 10% serum or 0.5% serum overnight as indicated. Honokiol (20 μM) or control ethanol was then added for 4 hr as indicated, at which time the cells were harvested and the levels of PBt were determined as in FIGS. 12A-C. The experiment shown is representative of at least three independent experiments. In FIG. 13B, the effect of honokiol on the activity of PLD isoforms was measured using exogenous substrate assay as described previously (Henage et al., “Kinetic Analysis of a Mammalian Phospholipase D: Allosteric Modulation by Monomeric GTPases, Protein Kinase C, and Polyphosphoinositides,” J. Biol. Chem. 281:3408-17 (2006), which is hereby incorporated by reference in its entirety). […] The amount of background was determined and subtracted using a bovine serum albumin standard. […]
For in vivo PLD activity, cells were plated in 60 mm culture dishes in DMEM with 10% serum at a density that would allow them to grow to about 80% confluence after 2 days, then cells were shifted to DMEM containing 0.5% or 10% serum as indicated in the figure legends overnight. […] Briefly, PLD activity was measured by the release of [methyl-^3H] choline from [choline-methyl-^3H]dipalmitoyl-phosphatidylcholine. […]

For `C=CCc1ccc(O)c(-c2ccc(O)c(CC=C)c2)c1` [honokiol, Honokiol], the “in vitro activity of PLD1” value is “no significant effect”.
